Experimental data published in ChEMBL document CHEMBL1833956, “Potent and novel 11β-HSD1 inhibitors identified from shape and docking based virtual screening” (Bioorg Med Chem Lett, 2011).

Tests used:
[1] = molecular target: T1, 11-beta-hydroxysteroid dehydrogenase 1 (Homo sapiens, UniProt P28845); assay: Inhibition of human 11beta HSD1 expressed in HEK293 cells assessed as assessed as inhibition of [1,2-(n)3H]cortisone to [3H]-cortisol after 60 mins by scintillation proximity assay; assay type: cell-based
Target sequence in this assay (P28845 whole entry): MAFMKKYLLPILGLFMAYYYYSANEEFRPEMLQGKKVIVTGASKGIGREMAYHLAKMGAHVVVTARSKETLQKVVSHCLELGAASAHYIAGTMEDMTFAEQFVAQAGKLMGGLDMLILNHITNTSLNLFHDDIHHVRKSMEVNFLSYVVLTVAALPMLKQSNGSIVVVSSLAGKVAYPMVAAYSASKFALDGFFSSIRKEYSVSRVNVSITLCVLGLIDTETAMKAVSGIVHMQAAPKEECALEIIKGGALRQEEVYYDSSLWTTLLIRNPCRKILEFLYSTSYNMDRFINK

[2] = molecular target: T2, 11-beta-hydroxysteroid dehydrogenase type 2 (Homo sapiens, UniProt P80365); assay: Inhibition of human 11beta HSD2
T2 sequence (P80365 whole entry): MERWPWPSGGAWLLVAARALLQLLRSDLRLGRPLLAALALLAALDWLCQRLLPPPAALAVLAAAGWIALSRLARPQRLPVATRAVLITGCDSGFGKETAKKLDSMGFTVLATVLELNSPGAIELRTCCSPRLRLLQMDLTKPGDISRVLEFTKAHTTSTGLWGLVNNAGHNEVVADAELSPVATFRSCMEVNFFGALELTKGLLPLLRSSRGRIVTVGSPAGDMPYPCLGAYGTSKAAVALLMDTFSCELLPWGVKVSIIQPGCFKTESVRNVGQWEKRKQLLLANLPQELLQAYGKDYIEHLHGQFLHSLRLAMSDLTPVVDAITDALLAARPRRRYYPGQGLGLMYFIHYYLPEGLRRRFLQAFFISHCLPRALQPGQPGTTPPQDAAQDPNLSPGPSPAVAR

[3] = molecular target: Cytochrome P450 2D6 (Homo sapiens, UniProt P10635); assay: Inhibition of CYP2D6 at 10 uM; assay type: ADME
[4] = species: Homo sapiens; assay: Selectivity ratio of IC50 for human 11beta HSD2 to IC50 for human 11beta HSD1
[5] = molecular target: CYP3A4 (Homo sapiens, UniProt P08684); assay: Inhibition of CYP3A4 in human liver microsomes using NADPH at 10 uM by LC-MS/MS analysis relative to control; assay type: ADME, Microsome
[6] = Protein binding in plasma; assay type: ADME, cell-free; settings: read-out: PPB
[7] = molecular target: T1, 11-beta-hydroxysteroid dehydrogenase 1; assay: Inhibition of human 11beta HSD1 expressed in HEK293 cells assessed as assessed as inhibition of [1,2-(n)3H]cortisone to [3H]-cortisol at 100 uM after 60 mins by scintillation proximity assay
Target sequence in this assay (P28845 whole entry, looked up): as the sequence (P28845 whole entry) above

CYP3A4, sequence (P08684 whole entry): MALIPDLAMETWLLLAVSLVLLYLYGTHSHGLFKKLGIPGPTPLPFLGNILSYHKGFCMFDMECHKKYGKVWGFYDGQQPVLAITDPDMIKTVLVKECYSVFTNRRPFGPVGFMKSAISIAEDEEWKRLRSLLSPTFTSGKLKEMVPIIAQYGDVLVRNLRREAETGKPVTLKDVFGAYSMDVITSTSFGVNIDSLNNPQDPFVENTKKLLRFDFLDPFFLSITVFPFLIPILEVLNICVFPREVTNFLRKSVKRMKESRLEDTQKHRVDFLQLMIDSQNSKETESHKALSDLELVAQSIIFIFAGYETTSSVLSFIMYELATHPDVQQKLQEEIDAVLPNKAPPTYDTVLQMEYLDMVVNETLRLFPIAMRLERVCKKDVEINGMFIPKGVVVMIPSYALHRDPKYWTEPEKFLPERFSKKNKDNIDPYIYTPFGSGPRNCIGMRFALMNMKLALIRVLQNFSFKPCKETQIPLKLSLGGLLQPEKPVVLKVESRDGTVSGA
Cytochrome P450 2D6, sequence (P10635 whole entry): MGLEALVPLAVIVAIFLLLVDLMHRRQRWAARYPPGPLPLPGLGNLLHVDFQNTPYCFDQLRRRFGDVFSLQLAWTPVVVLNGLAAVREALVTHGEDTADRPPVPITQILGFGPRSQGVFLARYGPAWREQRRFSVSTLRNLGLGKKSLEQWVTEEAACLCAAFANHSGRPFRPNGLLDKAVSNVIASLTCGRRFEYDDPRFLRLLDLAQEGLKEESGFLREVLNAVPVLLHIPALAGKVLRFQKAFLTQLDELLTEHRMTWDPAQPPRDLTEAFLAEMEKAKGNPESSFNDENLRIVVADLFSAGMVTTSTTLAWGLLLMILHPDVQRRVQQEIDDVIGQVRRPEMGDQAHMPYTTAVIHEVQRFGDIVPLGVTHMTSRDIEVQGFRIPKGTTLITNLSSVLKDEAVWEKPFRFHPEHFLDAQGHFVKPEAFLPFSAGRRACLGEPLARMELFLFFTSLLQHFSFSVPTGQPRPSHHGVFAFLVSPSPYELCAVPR

Structure (SMILES)	IC50 [1] [nM]	IC50 [2] [nM]	inhibition (INH) [3]	Ratio IC50 [4]	inhibition at 10 µM [5] [%]	fraction unbound [6]	inhibition [7] [%]
CCN(CC)C(=O)Cc1csc(NS(=O)(=O)c2cccc(Cl)c2C)n1	28.4						
O=C(CSc1nnc(-c2ccccc2)c(-c2ccccc2)n1)N1CCc2ccccc21	58.1	8900	Active	200	36	≤ 0.05	
N#C/C(=C\c1ccc2c(c1)CCO2)S(=O)(=O)c1ccc(Cl)cc1Cl			Not Active		26	≤ 0.05	
Fc1cccc(Cl)c1CSc1nnc(-c2ccco2)n1-c1ccc(OCc2ccccc2)cc1			Not Active		73	≤ 0.05	
O=S(=O)(c1ccc2ccccc2c1)N1CCN(c2ncc(C(F)(F)F)cc2Cl)CC1			Not Active		13	≤ 0.1	
CN(Cc1ccccc1)S(=O)(=O)c1ccc(Oc2cccc(Cl)c2C#N)cc1	41.3		Not Active	2420	17	≤ 0.05	< 50
O=S(=O)(c1ccc2ccccc2c1)N1CCCN(Cc2c(F)cccc2Cl)CC1			Not Active		26	≤ 0.1	
O=S(=O)(c1ccc2ccccc2c1)N1CC=C(c2ccccc2)CC1			Not Active		14	≤ 0.05	
O=S(=O)(Nc1cccc(CCc2ccccn2)c1)c1cc(Cl)ccc1Cl	102		Active		82	≤ 0.1	
